In ChEMBL document CHEMBL4665641, “Lead optimization and efficacy evaluation of quinazoline-based BET family inhibitors for potential treatment of cancer and inflammatory diseases” (Bioorg Med Chem Lett, 2019):

Legend:
MV4-11 = assay: Cytotoxicity against human MV4-11 cells assessed as inhibition of cell viability; type: functional, cell-based
[1] = target: T1, Bromodomain-containing protein 4 (Homo sapiens, UniProt O60885); assay: Competitive binding affinity to human partial length BRD4 (BD1,2) (N44 to E460 residues) expressed in bacterial expression system by BROMOscan assay
[2] = Cmax in CD-1 mouse at 2 mg/kg, iv measured after 5 mins; type: ADME, organism-based; parameters: route intravenous, dose 2 mg/kg; details: CD-1, mouse, in vivo, read-out: Cmax
[3] = Half life in CD-1 mouse at 2 mg/kg, iv; type: ADME, organism-based; details: in vivo
[4] = Half life in CD-1 mouse at 10 mg/kg, po; type: ADME, organism-based; details: in vivo
[5] = target: T1, Bromodomain-containing protein 4; assay: Inhibition of human full-length recombinant N-terminal His-tagged BRD4 (2 to 1362 residues) expressed in Sf9 cells using histone H4 peptide containing acetylated lysine residues as substrate preincubated with enzyme for 30 mins followed by incubation with substrate for 30 mins by Alphascreen assay […]
Kasumi 1 [6] = assay: Antitumor activity against human Kasumi-1 cells xenografted in CB17 SCID mouse assessed as inhibition of tumor growth at 10 mg/kg, po QD for 29 days; type: functional; details: Kasumi 1, po, 696 h, time 29 day, read-out: TGI
[7] = AUC(0 to infinity) in CD-1 mouse at 2 mg/kg, iv; type: ADME, organism-based; parameters: time infinity, route intravenous, dose 2 mg/kg; details: CD-1, mouse, in vivo
[8] = Plasma clearance in CD-1 mouse at 2 mg/kg, iv; type: ADME, organism-based
Kasumi 1 [9] = assay: Antitumor activity against human Kasumi-1 cells xenografted in CB17 SCID mouse assessed as tumor volume at 10 mg/kg, po QD for 29 days (reference value: 1734 +/- 220 mm3); type: functional; details: time 29 day
[10] = AUC(0 to infinity) in CD-1 mouse at 10 mg/kg, po; type: ADME, organism-based; parameters: route oral, time infinity, dose 10 mg/kg; details: CD-1, mouse, in vivo
[11] = Oral bioavailability in CD-1 mouse at 10 mg/kg; type: ADME, organism-based; details: CD-1, mouse, in vivo
Kasumi 1 [12] = assay: Antitumor activity against human Kasumi-1 cells xenografted in CB17 SCID mouse assessed as tumor weight at 10 mg/kg, po QD for 29 days (reference value: 2.1+/- 0.3 g); type: functional; details: time 29 day
[13] = Cmax in CD-1 mouse at 10 mg/kg, po; type: ADME, organism-based; parameters: route oral, dose 10 mg/kg; details: in vivo
[14] = Volume of distribution at steady state in CD-1 mouse at 2 mg/kg, iv; type: ADME, organism-based; details: in vivo, read-out: Vdss
[15] = Stability in mouse liver microsomes assessed as half life; type: ADME, Microsome

Cc1noc(C)c1-c1ccc2nc(N3CCC4(CCN(C)C4=O)CC3)nc(N3CCOC[C@@H]3c3ccccc3)c2c1
IC50 (MV4-11): 1360 nM
Kd [1]: 110 nM

Cc1cc(-c2ccc3nc(-c4cnn(CC(C)(C)O)c4)nc(N4CCOC[C@@H]4c4ccc(F)cc4)c3c2)cn(C)c1=O
Cmax [2]: 2260 ng/mL
half-life [3]: 2.6 h
half-life [4]: 4.2 h
IC50 [5]: 6 nM
Kd [1]: 20 nM
inhibition in vivo at 10 mg/kg (Kasumi 1 [6]): 41%
AUC(0-inf) [7]: 7400 ng·h/mL
clearance [8]: 4.5 mL/min/kg
Activity (Kasumi 1 [9]): 977 mm3
AUC(0-inf) [10]: 45700 ng·h/mL
bioavailability [11]: 123%
Activity (Kasumi 1 [12]): 1.24 g
Cmax ([13]; CD-1, mouse, read-out: Cmax): 3180 ng/mL
Vd [14]: 1.08 L/kg

Cc1noc(C)c1-c1ccc2nc(-c3cnn(CC(C)(C)O)c3)nc(N3CCOC[C@@H]3c3ccc(Cl)cc3)c2c1
Cmax [2]: 1800 ng/mL
half-life [3]: 2.4 h
half-life [4]: 2.8 h
IC50 [5]: 155 nM
IC50 (MV4-11): 1600 nM
Kd [1]: 305 nM
AUC(0-inf) [7]: 5720 ng·h/mL
clearance [8]: 5.9 mL/min/kg
AUC(0-inf) [10]: 12600 ng·h/mL
bioavailability [11]: 44%
Cmax ([13]; CD-1, mouse, read-out: Cmax): 1120 ng/mL
Vd [14]: 1.58 L/kg

Cc1noc(C)c1-c1ccc2nc(-c3cnn(CC(N)=O)c3)nc(N3CCOC[C@@H]3c3ccccc3)c2c1
IC50 (MV4-11): 2020 nM
Kd [1]: 120 nM

Cc1noc(C)c1-c1ccc2nc(-c3cnn(CCO)c3)nc(N3CCOCC3c3ccccc3)c2c1 (configuration not stated)
IC50 [5]: 72 nM
Cmax ([13]; mouse): 934 ng/mL

Cc1noc(C)c1-c1ccc2nc(-c3cnn(CC(C)(C)O)c3)nc(N3CCN(S(C)(=O)=O)C[C@@H]3c3ccccc3)c2c1
Cmax [2]: 2580 ng/mL
half-life [3]: 1.4 h
half-life [4]: 1.7 h
IC50 [5]: 90 nM
IC50 (MV4-11): 1130 nM
Kd [1]: 68 nM
AUC(0-inf) [7]: 4950 ng·h/mL
clearance [8]: 6.9 mL/min/kg
AUC(0-inf) [10]: 21200 ng·h/mL
bioavailability [11]: 86%
Cmax ([13]; CD-1, mouse, read-out: Cmax): 2670 ng/mL
Vd [14]: 0.82 L/kg

Cc1noc(C)c1-c1ccc2nc(-c3cnn(CC(=O)N(C)C)c3)nc(N3CCOC[C@@H]3c3ccccc3)c2c1
IC50 (MV4-11): 1800 nM
Kd [1]: 110 nM

Cn1cc(-c2ccc3nc(-c4cnn(CC(C)(C)O)c4)nc(N4CCOC[C@@H]4c4cccs4)c3c2)ccc1=O
Cmax [2]: 2040 ng/mL
half-life [3]: 2.3 h
half-life [4]: 1.6 h
IC50 [5]: 165 nM
IC50 (MV4-11): 980 nM
Kd [1]: 300 nM
AUC(0-inf) [7]: 5550 ng·h/mL
clearance [8]: 6.4 mL/min/kg
AUC(0-inf) [10]: 22900 ng·h/mL
bioavailability [11]: 83%
Cmax ([13]; CD-1, mouse, read-out: Cmax): 2090 ng/mL
Vd [14]: 1.08 L/kg

Cc1noc(C)c1-c1ccc2nc(-c3cnn(CCO)c3)nc(N3CCOC[C@@H]3c3ccccc3)c2c1
Kd [1]: 99 nM

Cn1cc(-c2ccc3nc(-c4cnn(CC(C)(C)O)c4)nc(N4CCOC[C@@H]4c4ccc(F)cc4)c3c2)ccc1=O
IC50 (MV4-11): 870 nM
Kd [1]: 160 nM

Cc1noc(C)c1-c1ccc2nc(-c3cnn(CC(C)(C)O)c3)nc(N3CCOC[C@@H]3C3CCCCC3)c2c1
t1/2 [15]: 4 min
IC50 (MV4-11): 1430 nM
Kd [1]: 123 nM

Cc1noc(C)c1-c1ccc2nc(N3CCN(CCN(C)C)CC3)nc(N3CCOC[C@H]3c3ccccc3)c2c1
IC50 (MV4-11): 1280 nM

CNC(=O)C1CCN(c2nc(N3CCOC[C@@H]3c3ccccc3)c3cc(-c4c(C)noc4C)ccc3n2)CC1
IC50 (MV4-11): 970 nM
Kd [1]: 73 nM

Cc1noc(C)c1-c1ccc2nc(C(=O)NC3CCN(C)CC3)nc(N3CCOC[C@@H]3c3ccccc3)c2c1
IC50 (MV4-11): 1600 nM
Kd [1]: 210 nM

Cc1cc(-c2ccc3nc(-c4cnn(CC(C)(C)O)c4)nc(N4CCOC[C@@H]4C4CC4)c3c2)cn(C)c1=O
Kd [1]: 70 nM

Cc1noc(C)c1-c1ccc2nc(-c3cnn(C(C)(C)CO)c3)nc(N3CCOC[C@@H]3c3ccccc3)c2c1
IC50 (MV4-11): 1970 nM
Kd [1]: 87 nM
